According to US20090124675A1, “INHIBITORS OF ANTI-APOPTOTIC PROTEINS” (Burnham Institute for Medical Research, priority 2007, published 2009):
“Also recorded” adds a separate entry of the source.

Key:
BCL-XL [1] = target: T1, BCL-XL (Homo sapiens, UniProt Q07817); assay: Inhibition evaluated by measuring dissociation constant (Kd); format: binding
T1 construct: Recombinant full length BCL-XL was produced; poly-His (N); made in house; host or cells: E. coli BL21
Procedure: (§1) Predicted binding mode of some compounds of the present invention to a BCL-2 protein is illustrated by FIG. 1 (binding of compound 11 shown below), FIG. 2A (binding of compound 1 shown above), and FIG. 2B (binding of compound 2 shown above). […] FIG. 4 and FIG. 5 show such NMR data for compounds 6 and 7 shown above. The inhibition was also evaluated by measuring dissociation constant (Kd) values for some compounds of the invention.

B6BCL-2 transgenic mouse = assay: In vivo test in the B6BCL-2 transgenic mouse; conditions: for In vivo activity compared with known compounds / Order of potency in terms of in vivo efficacy: B6BCL-2 transgenic mouse; for Order of potency in terms of in vivo efficacy / Order of severity of toxic effect: rank order; for Order of severity of toxic effect: diminishing severity
Procedure: Some compounds of the invention were also tested in vivo in the B6BCL-2 transgenic mouse. […] Gossypol is described, e.g., in U.S. Pat. No. 7,186,708. Apogossypol is described, e.g., in Meyers A. I.; Willemsen J. J., Tetrahedron Letters, vol. 37, No. 6, February, […], pp. 791-792.

BCL-XL [2] = target: T1, BCL-XL; assay: NMR spectroscopy binding test (1D 1H / 2D [15N,1H]-HSQC); conditions: NMR data, FIGS. 3-5; negative control
Procedure: as §1
For all NMR experiments, BCL-xL was exchanged into 50 mM phosphate buffer at pH 7.5 and measurements were performed at 30° C. 2D [^15N,^1H]-HSQC spectra for BCL-xL were measured with 0.5 mM samples of ^15N-labeled protein. All experiments were performed with a 600 MHz Bruker Avance spectrometer, both equipped with either a TXI probe or a TCI cryoprobe. In all experiments, dephasing of residual water signals was obtained with a WATERGATE sequence. In order to test the ability of test compounds to bind to Bcl-xL, a 25 μM sample of the protein was prepared and 1D ^1H NMR spectra were collected in absence and presence of test compounds. By observing the aliphatic region of the spectra, binding can be readily detected in these simple experiments due to chemical shift changes in active site methyl groups of Ile, Leu, Thr, Val or Ala (region between 0.8 and 0.3 ppm).

Triplet B6Bcl2 mice = assay: Delivery of Epalrestat in vivo, spleen weight in Triplet B6Bcl2 mice
Procedure: Epalrestat (compound 11) was given to Triplet B6Bcl2 mice at a daily dose of 0.12 mmol/kg for 3 days (i.e., QDX3) through oral gavage. […] Both Epalrestat and the negative control were dissolved in PBS.
After 3 days, the spleens of the animals were removed.

T1 sequence (Q07817 whole entry, species assumed): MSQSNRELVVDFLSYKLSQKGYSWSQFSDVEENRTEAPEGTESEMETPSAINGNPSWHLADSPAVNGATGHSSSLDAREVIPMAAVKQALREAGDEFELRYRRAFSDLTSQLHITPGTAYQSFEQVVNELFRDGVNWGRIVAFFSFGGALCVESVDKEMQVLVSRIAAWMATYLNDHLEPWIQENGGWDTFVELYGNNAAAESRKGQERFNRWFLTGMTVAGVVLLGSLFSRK

Row | Compound | Kd (BCL-XL [1]) [µM] | In vivo activity compared with known compounds (B6BCL-2 transgenic mouse) | Order of potency in terms of in vivo efficacy (B6BCL-2 transgenic mouse) | Order of severity of toxic effect (B6BCL-2 transgenic mouse) | other results
1 | CC(=C\c1ccccc1)/C=C1/SC(=S)N(C(C(=O)O)c2ccccc2)C1=O (stereo not shown) [Compound 1, 2-[5-(2-methyl-3-phenylallylidene)-4-oxo-2-thioxothiazolidin-3-yl]-2-phenylacetic acid] | 1 | – | – | – | –
2 | CC(=C\c1ccccc1)/C=C1/SC(=S)N(C(C(=O)O)C(C)C)C1=O (stereo not shown) [Compound 2, 3-methyl-2-[5-(2-methyl-3-phenylallylidene)-4-oxo-2-thioxothiazolidin-3-yl]butanoic acid] | 5.7 | – | – | – | –
3 | COc1cc2cc(C=C3SC(=S)N(C(C(=O)O)C(C)C)C3=O)c(C)cc2c(C(C)C)c1OC (stereo not shown) [Compound 3, 2-[5-(1-isopropyl-2,3-dimethoxy-7-methylnaphthalen-6-yl-methylene)-4-oxo-2-thioxothiazolidin-3-yl]-3-methylbutanoic acid] | – | equal to, or better than, known compounds gossypol and apogossypol | compound 11>compound 5>compound 3=apogossypol=gossypol | gossypol>>>apogossypol>compound 5=compound 3=compound 11 | –
4 | COc1cc2c(cc1OC)C(Br)=C(C=C1SC(=S)N(C(C(=O)O)C(C)C)C1=O)CC2 (stereo not shown) [Compound 5, 2-[5-((4-bromo-1,2-dihydro-6,7-dimethoxynaphthalen-3-yl)methylene)-4-oxo-2-thioxothiazolidin-3-yl]-3-methylbutanoic acid] | – | equal to, or better than, known compounds gossypol and apogossypol | compound 11>compound 5>compound 3=apogossypol=gossypol | gossypol>>>apogossypol>compound 5=compound 3=compound 11 | –
5 | CC(C)C(C(=O)O)N1C(=O)C(=CC2=C(Br)c3cc(O)c(O)cc3CC2)SC1=S (stereo not shown) [Compound 6, 2-[5-((4-bromo-1,2-dihydro-6,7-dihydroxynaphthalen-3-yl)methylene)-4-oxo-2-thioxothiazolidin-3-yl]-3-methylbutanoic acid] | – | – | – | – | Binding to BCL-XL by NMR (BCL-XL [2]): binding had occurred
6 | COc1c(C=C2SC(=S)N(C(C(=O)O)C(C)C)C2=O)cc2ccccc2c1OC (stereo not shown) [Compound 7, 2-[5-((1,2-dimethoxynaphthalen-3-yl)methylene)-4-oxo-2-thioxothiazolidin-3-yl]-3-methylbutanoic acid] | – | – | – | – | Binding to BCL-XL by NMR (BCL-XL [2]): binding had occurred
7 | CC(C)C(C(=O)O)N1C(=O)C(=CC=Cc2ccccc2)SC1=S (stereo not shown) [Compound 9, 3-methyl-2-[4-oxo-5-(3-phenylallylidene)-2-thioxothiazolidin-3-yl]butanoic acid] | 10.6 | – | – | – | –
8 | CC(C(=O)O)N1C(=O)C(=CC=Cc2ccccc2)SC1=S (stereo not shown) [Compound 10, 2-[4-oxo-5-(3-phenylallylidene)-2-thioxothiazolidin-3-yl]propanoic acid] | 34.4 | – | – | – | –
9 | CC(=Cc1ccccc1)C=C1SC(=S)N(CC(=O)O)C1=O [Compound 11, 2-[5-(2-methyl-3-phenylallylidene)-4-oxo-2-thioxothiazolidin-3-yl]acetic acid] | 11.8 | equal to, or better than, known compounds gossypol and apogossypol | compound 11>compound 5>compound 3=apogossypol=gossypol | gossypol>>>apogossypol>compound 5=compound 3=compound 11 | Binding to BCL-XL by NMR (BCL-XL [2]): binding had occurred; Shrinkage of spleen (Triplet B6Bcl2 mice; dosed orally or intraperitoneally): induced shrinkage of spleen whether dosed orally or intraperitoneally; Weight loss or signs of toxicity via physical exam (Triplet B6Bcl2 mice; intraperitoneal and oral routes, listed as Epalrestat): no weight loss or signs of toxicity via physical exam; also recorded: qualitatively safer than ApoG; Spleen Weight (Triplet B6Bcl2 mice; oral gavage, 0.12 mmol/kg daily for 3 days (QDX3), in PBS, spleens removed after 3 days): 193.9 mg; % spleen shrinkage, intraperitoneal versus oral dosing (Triplet B6Bcl2 mice; route comparison): Intraperitoneal injection induced more % shrinkage than oral dosing
10 | Cc1cc2c(C(C)C)c(O)c(O)cc2c(O)c1-c1c(C)cc2c(C(C)C)c(O)c(O)cc2c1O [apogossypol] | – | – | compound 11>compound 5>compound 3=apogossypol=gossypol | gossypol>>>apogossypol>compound 5=compound 3=compound 11 | –
11 | Cc1cc2c(C(C)C)c(O)c(O)c(C=O)c2c(O)c1-c1c(C)cc2c(C(C)C)c(O)c(O)c(C=O)c2c1O [gossypol] | – | – | – | gossypol>>>apogossypol>compound 5=compound 3=compound 11 | –
12 | apogossypolone | – | not effective at all | – | – | –
